Experimental data: patent publication US20260345530A1, “Use of a Therapeutic Agent with Sodium-Hydrogen Antiporter 1 Inhibitory Activity for the Treatment and Prevention of Diseases Associated with Chronic Fatigue, Exhaustion and/or Exertional Intolerance” (MITODICURE GMBH, priority 2022, published 2026)

Columns and labels:
[1] = test system: isolated rat soleus muscle; experiment: Ex vivo model of residual muscle force (fatigue) in isolated rat soleus muscle after sodium overload by high NaCl (200 mM) buffer; design: species or system rat (female Sprague Dawley); details: for residual contractile force compared with baseline control: drug concentrations of 30 to 500 nM, added 10 min before 30 min in 200 mM NaCl buffer, then stimulation in physiological NaCl buffer, 30 °C, pH 7.4, controls without inhibitor 10% to 20%; for effect on rat soleus muscle force decline: high NaCl (200 mM) protocol, result in words
Excerpt: The claim of this patent is that NHE1 inhibitors can improve disturbed body function and symptoms of ME/CFS, as an example of diseases associated with chronic fatigue (DACF). Muscular fatigue and loss of force (e.g., loss of handgrip strength) is a hallmark in ME/CFS patients. A main target of NHE1 inhibition is the skeletal muscle whose energetic function is deeply disturbed in ME/CFS and which is presumed to be very important in the symptomatology of ME/CFS. NHE1 activity plays a key role in the development of the disturbances by a rise in intramuscular sodium that finally leads to calcium overload. The latter causes a deep functional energetic disturbance or damage. The isolated rat muscle either soleus muscle or extensor digitorum longus muscle is a well-characterized and well-validated model for the study of the function of ion exchangers. The isolated rat soleus muscle is particularly appropriate for experiments ex vivo as it is very thin so that there is no need for blood supply. […] In this experimental setting, a high NaCl concentration buffer causes sodium influx to disturb and decrease excitability and to disturb calcium homeostasis to subsequently reduce muscle force. Inhibition of the NHE1, which exchanges one proton for the uptake of one sodium ion, reduces sodium entry and overload. Prevention or diminution of a loss of muscular force in this procedure indicates effective inhibition of NHE1 by a test compound with the described mode of action of NHE1-inhibition.
The decline in force in the soleus muscle can be considered as muscular fatigue and related to the loss of hand grip muscular strength in ME/CFS patients. The described ex vivo model is suited for testing the effect of NHE1 inhibitors and in particular their effect on force generation disturbed by mechanisms that worsen excitability or the energetic situation or calcium homeostasis via the sodium-calcium-exchanger. High NaCl in a buffer (200 mM) is used to cause intracellular sodium loading leading to a decline in contractile force.
The resulting decline in muscular force is considered as muscular fatigue. In the absence of electrical stimulation avoiding sodium entry by sodium channels the sodium influx during high NaCl exposure is due to the NHE1. Inhibition of NHE1 can prevent sodium overload and a decline in muscular force and fatigue.
Muscle preparation and incubation: Female Sprague Dawley rats of 5 weeks of age are used. After isoflurane anesthesia and cervical dislocation the intact soleus muscles of the animals is dissected. […]
Force measurement: The experimental set-up for force measurements allows for the simultaneous recordings from 6 muscles in separate incubation chambers in parallel. Force is recorded and stored with a Notocord HEM data acquisition system. […]

[2] = test system: myocardial infarction and dystrophic cardiomyopathy including DMD; details: animal models; Ghaleh et al. doi: 10.1016/j.ijcard.2020.03.031; cited from earlier work
[3] = test system: Ca2^+ and Na+ overload; details: preclinical; Chahine et al. doi: 10.1016/j.yjmcc.2005.01.003; Bkaily and Jacques doi: 10.1139/cjpp-2017-0265; cited from earlier work

CC(C)c1ccc(C(=O)NC(=N)N)cc1S(C)(=O)=O [Cariporide]
residual contractile force compared with baseline control [1]: 50-70%
effect on rat soleus muscle force decline [1]: diminished the loss of force
cardioprotective effects [2]: cardioprotective effects
effect in preventing the deleterious effects of Ca2^+ and Na+ overload [3]: beneficial effects

Cc1cc(S(C)(=O)=O)c(S(C)(=O)=O)cc1C(=O)N=C(N)N [Rimeporide, N-(4,5-bismethanesulfonyl-2-methylbenzoyl)guanidine]
residual contractile force compared with baseline control [1]: 50-70%
effect on rat soleus muscle force decline [1]: diminished the loss of force
cardioprotective effects [2]: cardioprotective effects
effect in preventing the deleterious effects of Ca2^+ and Na+ overload [3]: beneficial effects
